Laboratory results reported in paper PMC2644305 (Nature chemical biology, 2009).

Target: FACL19 (Mycobacterium tuberculosis, UniProt P9WQ51)

Structure (SMILES): CC(C)(COP(=O)(O)OP(=O)(O)OC[C@H]1O[C@@H](n2cnc3c(N)ncnc32)[C@H](O)[C@@H]1OP(=O)(O)O)[C@@H](O)C(=O)NCCC(=O)NCCS [compound 1, CoASH]
- KM: Kinetic analysis of CoA formation by wild type FACL19 and FACL19i proteins

Structure (SMILES): Nc1ncnc2c1ncn2[C@@H]1O[C@H](COP(=O)(O)OP(=O)(O)OP(=O)(O)O)[C@@H](O)[C@H]1O [compound 3, ATP]
- KM: no significant change in KM was observed for ATP
